Test results reported in ChEMBL document CHEMBL2401670, “Synthesis and biological evaluation of rhodanine derivatives bearing a quinoline moiety as potent antimicrobial agents” (Bioorg Med Chem Lett, 2013).
Values after ≈ are worked out from the molar mass of the structure shown.

Columns and labels:
[1] = test system: Staphylococcus aureus; experiment: Antibacterial activity against quinolone-resistant Staphylococcus aureus CCARM 3519 after 24 hrs by broth microdilution method; assay type: functional; conditions: CCARM 3519, 24 h
[2] = test system: Staphylococcus aureus; experiment: Antibacterial activity against quinolone-resistant Staphylococcus aureus CCARM 3505 after 24 hrs by broth microdilution method; assay type: functional; conditions: CCARM 3505, 24 h
[3] = test system: Staphylococcus aureus; experiment: Antibacterial activity against methicillin-resistant Staphylococcus aureus CCARM 3506 after 24 hrs by broth microdilution method; assay type: functional; conditions: CCARM 3506, 24 h
[4] = test system: Staphylococcus aureus; experiment: Antibacterial activity against methicillin-resistant Staphylococcus aureus CCARM 3167 after 24 hrs by broth microdilution method; assay type: functional; conditions: CCARM 3167, 24 h
[5] = test system: Escherichia coli; experiment: Antibacterial activity against Escherichia coli CCARM 1356 after 24 hrs by broth microdilution method; assay type: functional; conditions: CCARM 1356, 24 h
[6] = test system: Staphylococcus aureus; experiment: Antibacterial activity against Staphylococcus aureus KCTC 503 after 24 hrs by broth microdilution method; assay type: functional; conditions: KCTC 503, 24 h
[7] = test system: Staphylococcus aureus; experiment: Antibacterial activity against Staphylococcus aureus KCTC 209 after 24 hrs by broth microdilution method; assay type: functional; conditions: KCTC 209, 24 h
[8] = test system: Staphylococcus aureus; experiment: Antibacterial activity against Staphylococcus aureus RN4220 after 24 hrs by broth microdilution method; assay type: functional; conditions: RN4220, 24 h
[9] = test system: HeLa; experiment: Cytotoxicity against human HeLa cells after 48 hrs by MTT assay; assay type: cell-based

Compound	MIC [1] [mg/L]	MIC [2] [mg/L]	MIC [3] [mg/L]	MIC [4] [mg/L]	MIC [5] [mg/L]	MIC [6] [mg/L]	MIC [7] [mg/L]	MIC [8] [mg/L]	IC50 [9] [mg/L]
O=C(O)[C@H](Cc1ccccc1)N1C(=O)/C(=C/c2cc3cc(OCc4ccccc4Br)ccc3nc2Cl)SC1=S	2 (≈ 3.13 µM)	2 (≈ 3.13 µM)	2 (≈ 3.13 µM)	2 (≈ 3.13 µM)	> 64	8 (≈ 12.5 µM)	8 (≈ 12.5 µM)	4 (≈ 6.25 µM)	
O=C(O)[C@H](Cc1ccccc1)N1C(=O)/C(=C/c2cc3cc(OCc4ccc(Cl)cc4)ccc3nc2Cl)SC1=S	2 (≈ 3.36 µM)	2 (≈ 3.36 µM)	2 (≈ 3.36 µM)	2 (≈ 3.36 µM)	> 64	4 (≈ 6.72 µM)	8 (≈ 13.4 µM)	4 (≈ 6.72 µM)	
O=C(O)[C@H](Cc1ccccc1)N1C(=O)/C(=C/c2cc3cc(OCc4ccccc4F)ccc3nc2Cl)SC1=S	2 (≈ 3.45 µM)	2 (≈ 3.45 µM)	2 (≈ 3.45 µM)	1 (≈ 1.73 µM)	> 64	8 (≈ 13.8 µM)	64 (≈ 111 µM)	4 (≈ 6.91 µM)	
O=C(O)[C@H](Cc1ccccc1)N1C(=O)/C(=C/c2cc3cc(OCc4cccc(F)c4)ccc3nc2Cl)SC1=S	2 (≈ 3.45 µM)	1 (≈ 1.73 µM)	1 (≈ 1.73 µM)	2 (≈ 3.45 µM)	> 64	4 (≈ 6.91 µM)	64 (≈ 111 µM)	4 (≈ 6.91 µM)	
O=C(O)[C@H](Cc1ccccc1)N1C(=O)/C(=C/c2cc3cc(OCc4ccc(F)cc4)ccc3nc2Cl)SC1=S	4 (≈ 6.91 µM)	2 (≈ 3.45 µM)	2 (≈ 3.45 µM)	2 (≈ 3.45 µM)	> 64	4 (≈ 6.91 µM)	32 (≈ 55.3 µM)	4 (≈ 6.91 µM)	
CCC(C)[C@@H](C(=O)O)N1C(=O)/C(=C/c2cc3cc(OCc4ccccc4Cl)ccc3nc2Cl)SC1=S (stereo partly drawn)	2 (≈ 3.56 µM)	2 (≈ 3.56 µM)	1 (≈ 1.78 µM)	2 (≈ 3.56 µM)	> 64	8 (≈ 14.2 µM)	64 (≈ 114 µM)	4 (≈ 7.12 µM)	
CCC(C)[C@@H](C(=O)O)N1C(=O)/C(=C/c2cc3cc(OCc4cccc(Cl)c4)ccc3nc2Cl)SC1=S (stereo partly drawn)	2 (≈ 3.56 µM)	1 (≈ 1.78 µM)	1 (≈ 1.78 µM)	2 (≈ 3.56 µM)	> 64	4 (≈ 7.12 µM)	> 64	2 (≈ 3.56 µM)	
CCC(C)[C@@H](C(=O)O)N1C(=O)/C(=C/c2cc3cc(OCc4ccc(Cl)cc4)ccc3nc2Cl)SC1=S (stereo partly drawn)	2 (≈ 3.56 µM)	2 (≈ 3.56 µM)	1 (≈ 1.78 µM)	1 (≈ 1.78 µM)	> 64	4 (≈ 7.12 µM)	8 (≈ 14.2 µM)	2 (≈ 3.56 µM)	
CCC(C)[C@@H](C(=O)O)N1C(=O)/C(=C/c2cc3cc(OCc4ccccc4F)ccc3nc2Cl)SC1=S (stereo partly drawn)	2 (≈ 3.67 µM)	2 (≈ 3.67 µM)	1 (≈ 1.83 µM)	2 (≈ 3.67 µM)	> 64	4 (≈ 7.34 µM)	32 (≈ 58.7 µM)	2 (≈ 3.67 µM)	
CCC(C)[C@@H](C(=O)O)N1C(=O)/C(=C/c2cc3cc(OCc4cccc(F)c4)ccc3nc2Cl)SC1=S (stereo partly drawn)	2 (≈ 3.67 µM)	2 (≈ 3.67 µM)	1 (≈ 1.83 µM)	2 (≈ 3.67 µM)	> 64	8 (≈ 14.7 µM)	32 (≈ 58.7 µM)	2 (≈ 3.67 µM)	
CCC(C)[C@@H](C(=O)O)N1C(=O)/C(=C/c2cc3cc(OCc4ccc(F)cc4)ccc3nc2Cl)SC1=S (stereo partly drawn)	1 (≈ 1.83 µM)	2 (≈ 3.67 µM)	1 (≈ 1.83 µM)	2 (≈ 3.67 µM)	> 64	4 (≈ 7.34 µM)	2 (≈ 3.67 µM)	1 (≈ 1.83 µM)	
CCC(C)[C@@H](C(=O)O)N1C(=O)/C(=C/c2cc3cc(OCc4ccc(C)cc4)ccc3nc2Cl)SC1=S (stereo partly drawn)	2 (≈ 3.7 µM)	2 (≈ 3.7 µM)	2 (≈ 3.7 µM)	2 (≈ 3.7 µM)	> 64	4 (≈ 7.39 µM)	4 (≈ 7.39 µM)	2 (≈ 3.7 µM)	9.09 (≈ 16.8 µM)
CC(C)C[C@@H](C(=O)O)N1C(=O)/C(=C/c2cc3cc(OCc4ccccc4Cl)ccc3nc2Cl)SC1=S	2 (≈ 3.56 µM)	1 (≈ 1.78 µM)	1 (≈ 1.78 µM)	1 (≈ 1.78 µM)	> 64	8 (≈ 14.2 µM)	4 (≈ 7.12 µM)	1 (≈ 1.78 µM)	
CC(C)C[C@@H](C(=O)O)N1C(=O)/C(=C/c2cc3cc(OCc4cccc(Cl)c4)ccc3nc2Cl)SC1=S	2 (≈ 3.56 µM)	2 (≈ 3.56 µM)	2 (≈ 3.56 µM)	1 (≈ 1.78 µM)	> 64	64 (≈ 114 µM)	4 (≈ 7.12 µM)	2 (≈ 3.56 µM)	
CC(C)C[C@@H](C(=O)O)N1C(=O)/C(=C/c2cc3cc(OCc4ccc(F)cc4)ccc3nc2Cl)SC1=S	1 (≈ 1.83 µM)	2 (≈ 3.67 µM)	2 (≈ 3.67 µM)	2 (≈ 3.67 µM)	> 64	8 (≈ 14.7 µM)	8 (≈ 14.7 µM)	2 (≈ 3.67 µM)	
Cc1ccc(COc2ccc3nc(Cl)c(/C=C4\SC(=S)N([C@@H](CC(C)C)C(=O)O)C4=O)cc3c2)cc1	1 (≈ 1.85 µM)	1 (≈ 1.85 µM)	2 (≈ 3.7 µM)	1 (≈ 1.85 µM)	> 64	8 (≈ 14.8 µM)	8 (≈ 14.8 µM)	1 (≈ 1.85 µM)	8.84 (≈ 16.3 µM)
O=C(O)[C@H](Cc1ccccc1)N1C(=O)/C(=C/c2cc3cc(OCc4ccccc4Cl)ccc3nc2Cl)SC1=S	2 (≈ 3.36 µM)	2 (≈ 3.36 µM)	2 (≈ 3.36 µM)	2 (≈ 3.36 µM)	> 64	8 (≈ 13.4 µM)	64 (≈ 107 µM)	4 (≈ 6.72 µM)	
O=C(O)[C@H](Cc1ccccc1)N1C(=O)/C(=C/c2cc3cc(OCc4cccc(Cl)c4)ccc3nc2Cl)SC1=S	2 (≈ 3.36 µM)	2 (≈ 3.36 µM)	2 (≈ 3.36 µM)	2 (≈ 3.36 µM)	> 64	8 (≈ 13.4 µM)	64 (≈ 107 µM)	2 (≈ 3.36 µM)	
COc1c(N2CCNC(C)C2)c(F)cc2c(=O)c(C(=O)O)cn(C3CC3)c12 (stereo not drawn) [GATIFLOXACIN]	4 (≈ 10.7 µM)	8 (≈ 21.3 µM)	1 (≈ 2.66 µM)	2 (≈ 5.33 µM)	16 (≈ 42.6 µM)	4 (≈ 10.7 µM)	2 (≈ 5.33 µM)	0.25 (≈ 0.666 µM)	
COc1c(N2C[C@@H]3CCCN[C@@H]3C2)c(F)cc2c(=O)c(C(=O)O)cn(C3CC3)c12 [MOXIFLOXACIN]	4 (≈ 9.96 µM)				> 64			0.25 (≈ 0.623 µM)	
CCn1cc(C(=O)O)c(=O)c2cc(F)c(N3CCNCC3)cc21 [NORFLOXACIN]	> 64	> 64	4 (≈ 12.5 µM)	8 (≈ 25.1 µM)	16 (≈ 50.1 µM)	2 (≈ 6.26 µM)	2 (≈ 6.26 µM)	2 (≈ 6.26 µM)	
Cc1onc(-c2ccccc2)c1C(=O)N[C@@H]1C(=O)N2[C@@H]1SC(C)(C)[C@@H]2C(=O)O [OXACILLIN]	1 (≈ 2.49 µM)	1 (≈ 2.49 µM)	> 64	> 64	> 64	1 (≈ 2.49 µM)	1 (≈ 2.49 µM)	1 (≈ 2.49 µM)	
